Test results taken from EP0187057A1, “2-Phenyl-isopropyl-allophanate, preparation and pharmaceutical application” (priority 1984, dated 1986).
Read-outs that look alike come from different tables or passages of the source.

Columns and labels:
[1] = Acute toxicity by the digestive route, lethality after one week of observation; type: in vivo, souris; conditions: mouse, in vivo, po; for mortality at 168 h: read-out: Pourcentage de létalité Souris
Method: (§1) Des doses croissantes de produit (SCS 289) ont été administrées, par voie digestive, sous forme de suspensions gommeuses, sous le volume de 0,50 ml/20 g de poids corporel chez la souris et 0,50 ml/100 g de poids corporel chez le rat (de 500 à 4000 mg/kg avec des intervalles de 500 mg/kg).
(§2) Les animaux ont été maintenus en observation pendant une semaine, tout d'abord dans le laboratoire (avec un chauffage d'appoint) jusqu'au réveil des animaux endormis, puis dans l'unité animale conditionnée et climatisée.
(§3) Le taux de mortalité relevé dans chaque lot de rats et de souris au terme de la semaine d'observation a été le suivant :
(§4) Les valeurs des DL50, calculées par la méthode de Miller et Tainter sont respectivement de : • - 2300 ± 102 m^g/k^g chez la souris; • - 2050 + 220 mg/kg chez le rat.

[2] = system: souris; assay: as above; type: in vivo; conditions: souris, voie digestive, méthode de Miller et Tainter; 10080 min
Method: as §1, §2, §3, §4

[3] = as above; conditions: in vivo, po, rat; for mortality at 168 h: read-out: Pourcentage de létalité Rats
Method: as §1, §2, §3, §4

[4] = system: crises épileptiformes consécutives à l'électrochoc; assay: Maximal electroshock producing epileptiform 'grand mal' seizures (1st and 2nd electroshock); type: in vivo, lapin
From the text: (§5) Propriétés anticonvulsivantes : • On a effectué, pour déterminer ces propriétés anticonvulsivantes, des expérimentations sur le SCS 289 en procédant à des essais de protection : • - chez le lapin soumis à une transélectrification cranienne génératrice de crises épileptiformes de type "grand mal" ou recevant une infusion veineuse de pentétrazol provoquant l'apparition de myoclonies palpébrales; • - chez la souris recevant, par voie sous-cutanée des doses croissantes de pentétrazol entraînant convulsions et mort ou soumise à une transélectrification transcranienne à basse fréquence génératrice de crises psychomotrices.
Ne considérant comme significative, que la protection complète, les traitements pratiqués une heure avant le second électrochoc ont conféré les protection suivantes (sur groupes de dix lapins) :
Si, par ailleurs, on considère la protection contre les crises toniques (hyperextension des pattes postérieures), il apparaît également une synergie particulièrement aux doses associées de 200 mg/kg de produits.

[5] = system: crises pentétrazoliques; assay: Convulsant and lethal effects of subcutaneous pentetrazol (125 mg/kg); type: in vivo, souris
From the text: as §5
Pour déceler une synergie d'action antagoniste vis-à-vis des effets convulsivants et létaux du pentétrazol injecté par voie sous-cutanée chez la souris à la dose de 125 mg/kg, on a déterminé avec plus de précision la DE50 du SCS 289 et on a recherché si l'association avec le SCS 35 apportait un surcroit appréciable d'activité.
On n'a retenu comme significative que la protection à l'égard des effets létaux observés sur 24 heures.

[6] = Hole-board test (curiosity, exploratory behaviour); type: in vivo, souris; conditions: mouse, in vivo, po
From the text: (§6) On a donc étudié les effets dépresseurs que peuvent exercer des doses croissantes de SCS 289 sur : • - la motricité spontanée de la souris; • - sa curiosité, quantifiée par la méthode de la planche à trous; • - son agilité, évaluée par l'épreuve de la traction de Boissier et Simon; • - sa force musculaire, mesurée par l'épreuve des poids.
(§7) Les essais ont été pratiqués sur des groupes de 10 souris dont les performances motrices ont été mesurées à deux reprises : avant et une heure après traitement par le SCS 289 administré, par voie digestive à des doses allant de 10 à 200 mg/kg, actives vis-à-vis des convulsions pentétrazoliques et des crises psychomotrices. A noter que l'épreuve de la planche à trous utilisée pour chiffrer la curiosité des animaux (décompte du nombre de visites des trous) n'est pratiquée qu'une seule fois, le comportement explorateur des animaux traités étant alors comparé à celui des témoins.
(§8) Les résultats obtenus dans chaque groupe ont permis de calculer la DA50 capable de diminuer de 50 X les performances motrices initiales ou de diminuer de 50% la curiosité des souris traitées par rapport à celle des témoins.
(§9) Les expérimentations comportementales précédemment décrites ont été appliquées à des animaux recevant SCS 35 et SCS 289 aux doses de 10 et 25 mg/kg.

[7] = Weights test (muscular strength); type: in vivo, souris; conditions: mouse, in vivo, po; dose diminishing initial performance by 50 %; read-out: DA50 force musculaire
From the text: as §6, §7, §8, §9

[8] = system: force musculaire de la souris; assay: Weights test (muscular strength); type: in vivo
From the text: as §6, §7, §8, §9

[9] = Spontaneous motor activity; type: in vivo, souris; conditions: mouse, in vivo, po; dose diminishing initial performance by 50 %; read-out: DA50 motricité
From the text: as §6, §7, §8, §9

[10] = system: motricité spontanée de la souris; assay: Spontaneous motor activity; type: in vivo
From the text: as §6, §7, §8, §9

[11] = 10 mg/kg voie digestive, one hour after treatment

Compound: CC(C)OC(=O)N(C(N)=O)c1ccccc1 [SCS 289, phényl-2 allophanate d'isopropyle]
- mortality at 168 h ([1]; 500 mg/kg voie digestive): 0%
- mortality at 168 h ([1]; 1000 mg/kg voie digestive): 0%
- mortality at 168 h ([1]; 1500 mg/kg voie digestive): 0%
- mortality at 168 h ([1]; 2000 mg/kg voie digestive): 20%
- mortality at 168 h ([1]; 2500 mg/kg voie digestive): 40%
- mortality at 168 h ([1]; 3000 mg/kg voie digestive): 100%
- mortality at 168 h ([1]; 3500 mg/kg voie digestive): 100%
- mortality at 168 h ([1]; 4000 mg/kg voie digestive): 100%
- LD50 at 168 h ([1]; souris, voie digestive, méthode de Miller et Tainter, read-out: DL50): 2300 ± 102 mg/kg
- DL50 [2]: 2300 + 102 mg/kg
- LD50 at 168 h ([3]; voie digestive, méthode de Miller et Tainter, read-out: DL50): 2050 mg/kg
- mortality at 168 h ([3]; 500 mg/kg voie digestive): 0%
- mortality at 168 h ([3]; 1000 mg/kg voie digestive): 15%
- mortality at 168 h ([3]; 1500 mg/kg voie digestive): 30%
- mortality at 168 h ([3]; 2000 mg/kg voie digestive): 55%
- mortality at 168 h ([3]; 2500 mg/kg voie digestive): 60%
- mortality at 168 h ([3]; 3000 mg/kg voie digestive): 65%
- mortality at 168 h ([3]; 3500 mg/kg voie digestive): 80%
- mortality at 168 h ([3]; 4000 mg/kg voie digestive): 100%
- % d'animaux protégés contre les seules crises toniques ([4]; 100 mg/kg, hyperextension tonique des pattes postérieures): 60%
- % d'animaux protégés contre les seules crises toniques ([4]; 200 mg/kg): 50%
- protection contre la forme tonique des convulsions (animals out of ten) ([4]; 200 mg/kg): cinq animaux sur dix
- % d'animaux protégés complètement ([4]; 200 mg/kg, one hour before second electroshock, groups of ten rabbits): 20%
- % de protection vis-à-vis de la létalité pentétrazolique ([5]; 10 mg/kg): 20%
- % de létalité en 24 h ([5]; 10 mg/kg 1 h avant pentétrazol 125 mg/kg s.c., untreated 100): 80%
- % de protection vis-à-vis de la létalité pentétrazolique ([5]; 20 mg/kg): 70%
- % de létalité en 24 h ([5]; 20 mg/kg 1 h avant pentétrazol): 30%
- % de protection vis-à-vis de la létalité pentétrazolique ([5]; 30 mg/kg): 100%
- % de létalité en 24 h ([5]; 30 mg/kg 1 h avant pentétrazol): 0%
- % de protection vis-à-vis de la létalité pentétrazolique ([5]; 40 mg/kg): 100%
- % de létalité en 24 h ([5]; 40 mg/kg 1 h avant pentétrazol): 0%
- % de protection vis-à-vis de la létalité pentétrazolique ([5]; 50 mg/kg): 100%
- % de létalité en 24 h ([5]; 50 mg/kg 1 h avant pentétrazol): 0%
- ED50 ([5]; Mus musculus, sc, 24 h, souris, read-out: DE50 à l'égard des crises pentétrazoliques maximales et létales): 15 mg/kg
- DL50/DE50 /pentétrazol ([5]; index thérapeutique absolu, souris): 153
- ED50 at 1 h ([6]; méthode de Miller et Tainter, read-out: DA50 capable de diminuer de 50 % la curiosité de la souris): 82.5 mg/kg
- selectivity ratio ([6]; souris, read-out: DA50 curiosité par rapport aux doses anticonvulsivantes (pentétrazol / crises psychomotrices)): 15 to 18
- ED50 at 1 h [7]: 63 mg/kg
- Propriétés déficitaires motrices sur la force musculaire (pourcentage de diminution des scores) [8, 11]: 3,8%
- Propriétés déficitaires motrices sur la force musculaire (pourcentage de diminution des scores) ([8]; 25 mg/kg): 8,3%
- Propriétés déficitaires motrices sur la force musculaire (pourcentage de diminution des scores) ([8]; 50 mg/kg): 33%
- Propriétés déficitaires motrices sur la force musculaire (pourcentage de diminution des scores) ([8]; 75 mg/kg): 31,9%
- Propriétés déficitaires motrices sur la force musculaire (pourcentage de diminution des scores) ([8]; 100 mg/kg): 80,4%
- Propriétés déficitaires motrices sur la force musculaire (pourcentage de diminution des scores) ([8]; 150 mg/kg): 100%
- Propriétés déficitaires motrices sur la force musculaire (pourcentage de diminution des scores) ([8]; 200 mg/kg): 100%
- ED50 at 1 h [9]: 120 mg/kg
- Propriétés déficitaires motrices sur la motricité (pourcentage de diminution des scores) [10, 11]: 0%
- Propriétés déficitaires motrices sur la motricité (pourcentage de diminution des scores) ([10]; 25 mg/kg): 20%
- Propriétés déficitaires motrices sur la motricité (pourcentage de diminution des scores) ([10]; 50 mg/kg): 25%
- Propriétés déficitaires motrices sur la motricité (pourcentage de diminution des scores) ([10]; 75 mg/kg): 30%
- Propriétés déficitaires motrices sur la motricité (pourcentage de diminution des scores) ([10]; 100 mg/kg): 50%
- Propriétés déficitaires motrices sur la motricité (pourcentage de diminution des scores) ([10]; 150 mg/kg): 100%
- Propriétés déficitaires motrices sur la motricité (pourcentage de diminution des scores) ([10]; 200 mg/kg): 100%
